Data from ChEMBL document CHEMBL3580570, “Discovery and SAR study of a sulfonamide hydroxamic acid inhibitor for the botulinum neurotoxin serotype A light chain” (Medchemcomm, 2014).

target: Botulinum neurotoxin type A (Clostridium botulinum, UniProt P0DPI0); assay: Competitive inhibition of Clostridium botulinum BoNT/A LC using SNAPtide as substrate after 10 mins by FRET assay
Sequence (P0DPI0 2-448 limits assumed): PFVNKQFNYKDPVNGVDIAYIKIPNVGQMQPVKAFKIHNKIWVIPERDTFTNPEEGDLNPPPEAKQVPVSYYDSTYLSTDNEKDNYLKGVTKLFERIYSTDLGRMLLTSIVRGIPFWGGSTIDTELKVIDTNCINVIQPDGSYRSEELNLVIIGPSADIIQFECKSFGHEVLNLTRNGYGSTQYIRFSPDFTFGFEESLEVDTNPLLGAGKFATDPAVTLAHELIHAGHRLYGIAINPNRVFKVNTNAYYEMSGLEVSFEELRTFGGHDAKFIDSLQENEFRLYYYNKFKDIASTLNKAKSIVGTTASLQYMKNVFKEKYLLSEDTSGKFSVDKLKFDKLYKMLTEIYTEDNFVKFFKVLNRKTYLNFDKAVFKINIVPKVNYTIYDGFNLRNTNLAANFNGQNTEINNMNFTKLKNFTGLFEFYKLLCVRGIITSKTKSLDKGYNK

Row | SMILES | IC50 [µM] | Ki [µM]
1 | O=C(NO)[C@@H]1CCCN1S(=O)(=O)c1ccc(-c2ccc(Cl)cc2)cc1 | > 100 | –
2 | CC[C@@H](C)[C@@H](NS(=O)(=O)c1ccc(-c2ccc(Cl)cc2)cc1)C(=O)NO | 6.91 | –
3 | CC[C@H](C)[C@H](NS(=O)(=O)c1cccc(-c2ccc(Cl)cc2)c1)C(=O)NO | 8.14 | –
4 | CC[C@H](C)[C@H](NS(=O)(=O)c1ccc(-c2ccc(F)cc2)cc1)C(=O)NO | 9.6 | –
5 | CC(C)C[C@@H](NS(=O)(=O)c1ccc(-c2ccc(Cl)cc2)cc1)C(=O)NO | 25.9 | –
6 | CC[C@H](C)[C@@H](NS(=O)(=O)c1ccc(-c2ccc(Cl)cc2)cc1)C(=O)NO | 11.8 | –
7 | CC[C@H](C)[C@H](NS(=O)(=O)c1ccc(-c2ccc(Cl)cc2)cc1)C(N)=O | > 100 | –
8 | CC[C@H](C)[C@H](NS(=O)(=O)c1ccc(-c2ccc(OC)cc2)cc1)C(=O)NO | > 100 | –
9 | O=C(NO)[C@@H]1C[C@@H](Oc2ccc(Cl)cc2)CN1S(=O)(=O)c1ccc(Cl)cc1 | – | 6.3
10 | CC(C)[C@H](NS(=O)(=O)c1ccc(-c2ccc(Cl)cc2)cc1)C(=O)NO | 38.2 | –
11 | O=C(NO)[C@H](Cc1ccccc1)NS(=O)(=O)c1ccc(-c2ccc(Cl)cc2)cc1 | > 100 | –
12 | CC[C@H](C)[C@H](NS(=O)(=O)c1ccccc1)C(=O)NO | > 100 | –
13 | CC(C)C[C@H](NS(=O)(=O)c1ccc(-c2ccc(Cl)cc2)cc1)C(=O)NO | 24.8 | –
14 | CC[C@H](C)[C@H](NS(=O)(=O)c1ccc(-c2ccccc2)cc1)C(=O)NO | 27.7 | –
15 | CC[C@H](C)[C@H](NS(=O)(=O)c1ccc(-c2ccc(NC(C)=O)cc2)cc1)C(=O)NO | > 100 | –
16 | CC[C@@H](C)[C@H](NS(=O)(=O)c1ccc(-c2ccc(Cl)cc2)cc1)C(=O)NO | 41.8 | –
17 | CC[C@H](C)[C@H](NS(=O)(=O)c1ccc2c(c1)OCCO2)C(=O)NO | 20.7 | –
18 | CC[C@@H](C)[C@@H](NS(=O)(=O)c1cccc(-c2ccc(Cl)cc2)c1)C(=O)NO | 0.95 | –
19 | CC[C@H](C)[C@H](NS(=O)(=O)c1ccc(-c2ccc(C)cc2)cc1)C(=O)NO | > 100 | –
20 | CC[C@H](C)[C@H](NS(=O)(=O)c1ccc(-c2ccc(Cl)cc2)cc1)C(=O)NO | 10.1 | –
21 | CC[C@H](C)[C@H](NS(=O)(=O)c1ccc(-c2ccc(Cl)cc2)cc1)C(=O)O | > 100 | –
